Results on 1 compound are retold here after patent US6395684B1, “Selective herbicides based on a substituted phenyl sulfonyl amino carbonyl triazolinone” (Bayer Aktiengesellschaft, priority 1998, dated 2002).

Holding throughout (assay type): in vivo
The test system of one experiment is Agropyron. Put plainly: Pre-emergence test/greenhouse. Particulars: 15 g ai./ha, greenhouse, after three weeks. Here is the method:
(§1) Pre-emergence Test/greenhouse Solvent: 5 parts by weight of acetone Emulsifier: 1 part by weight of alkylaryl polyglycol ether To produce a suitable preparation of active compound, 1 part by weight of active compound is mixed with the stated amount of solvent, the stated amount of emulsifier is added and the concentrate is diluted with water to the desired concentration. Seeds of the test plants are sown in normal soil. After about 24 hours, the soil is sprayed with the preparation of active compound such that the particular amount of active compound desired is applied per unit area. The concentration of the spray liquor is chosen so that the particular amount of active compound desired is applied in 500 litres of water per hectare. After three weeks, the degree of damage to the plants is tested in % damage in comparison to the development of the untreated control. The figures denote: 0% no effect (like untreated control) 100%=total destruction

A further experiment concerns Alopecurus. Put plainly: Pre-emergence test/greenhouse. Particulars: greenhouse, after three weeks. Here is the method:
as §1

The subject of another experiment is Avena. Put plainly: Pre-emergence test/greenhouse. Particulars: greenhouse, after three weeks. Here is the method:
as §1

In another experiment the test system is Lolium. Put plainly: Pre-emergence test/greenhouse. Particulars: 30 g ai./ha, greenhouse, after three weeks. Here is the method:
as §1

A further experiment relates to Sinapis. Put plainly: Pre-emergence test/greenhouse. Particulars: 15 g ai./ha, greenhouse, after three weeks. Here is the method:
as §1

Experiment [1] has as its system Wheat. The experiment is described as follows: Pre-emergence test/greenhouse. Particulars: greenhouse; for degree of damage to the plants (% damage in comparison to the untreated control): Wheat, after three weeks. Here is the method:
as §1

The next experiment relates to Agropyron repens. Put plainly: Post emergence tests/outdoors (Example C, Germany and France). Particulars: 42 g of a.i./ha to 45 g of a.i./ha, post-emergence (spring), outdoors, winter wheat, 70 WP or 70 WG, 83 tests. Here is the method: (§2) Post Emergence Tests/outdoors Under outdoor conditions, the sodium salt of the compound of the formula (I) was tested in winter wheat in Germany and France against economically important weeds. The small-plot experiments were carried out on cultivated land under agricultural use, with cultivation and climate conditions which can be considered to be representative for the period of the trial. Areas with particularly extensive weed growth were chosen by way of preference. The active compound was applied by the post-emergence method (spring) across the area by the spray method, with an average droplet size. To produce a useful preparation of active compound, the active compound was formulated as 70 WP or 70 WG (70% w/w water-dispersible powder or granules) and applied with customary amounts of water. To assess the crop compatibility, from 1 to 8 weeks after the treatment, plant growth inhibitions or […] of the leaf area were assessed in % damage in comparison to the development of the untreated control. At different intervals after the treatment, the herbicidal activity was assessed as % reduction in comparison to the untreated control, based on the weed development. The figures denote: 0%=no damage of the crops or no herbicidal effect, 100%=total destruction of the crops or the weeds.

In the next experiment the test system is Alopecurus myosuroides. Described as above. Particulars: 42 g of a.i./ha to 45 g of a.i./ha, post-emergence (spring), outdoors, winter wheat, 70 WP or 70 WG, 204 tests. Here is the method: as §2
The next experiment relates to Apera spica-venti. The description is as above. Particulars: 42 g of a.i./ha to 45 g of a.i./ha, post-emergence (spring), outdoors, winter wheat, 70 WP or 70 WG, 87 tests. Here is the method:
as §2

The next experiment relates to Capsella bursa-pastoris. Described as above. Particulars: 42 g of a.i./ha to 45 g of a.i./ha, post-emergence (spring), outdoors, winter wheat, 70 WP or 70 WG, 6 tests. Here is the method:
as §2

The next experiment has as its system Poa annua. Described as above. Particulars: 42 g of a.i./ha to 45 g of a.i./ha, post-emergence (spring), outdoors, winter wheat, 70 WP or 70 WG, 5 tests. Here is the method:
as §2

For another experiment, the system named is Sinapis arvensis. The description is as above. Particulars: 42 g of a.i./ha to 45 g of a.i./ha, post-emergence (spring), outdoors, winter wheat, 70 WP or 70 WG, 4 tests. Here is the method: as §2
In the next experiment the test system is Bromus secalinus. The experiment is described as follows: Post-emergence tests/outdoors (Example D, USA). Particulars: 42 g a.i./ha to 45 g a.i./ha, post-emergence (autumn), outdoors, winter wheat, with surface-active substances (SAS), 24 tests. Here is the method: (§3) The active compound was applied by the post-emergence method (spring) across the area by the spray method, with an average droplet size. To produce a useful preparation of active compound, the active compound was formulated as 70 WP or 70 WG (70% w/w water-dispersible powder or granules) and applied with customary amounts of water. To assess the crop compatibility, from 1 to 8 weeks after the treatment, plant growth inhibitions or […] of the leaf area were assessed in % damage in comparison to the development of the untreated control. At different intervals after the treatment, the herbicidal activity was assessed as % reduction in comparison to the untreated control, based on the weed development. The figures denote: 0%=no damage of the crops or no herbicidal effect, 100%=total destruction of the crops or the weeds. Post-emergence Tests/outdoors The sodium salt of the compound of the formula (I) was tested under outdoor conditions in the main cultivation areas of winter wheat in the USA (Pacific Northwest, North Central Area, Central Plains) against economically important weeds. The design, the practice and the evaluation of the experiments corresponded to Example C. The active compound was applied in autumn. Wetting of the plants was improved by addition of commercial surface-active substances (SAS) in the concentrations recommended by the respective manufacturer.

The next experiment relates to Bromus tectorum. The experiment is described as follows: Post-emergence tests/outdoors (Example D, USA). Particulars: 42 g a.i./ha to 45 g a.i./ha, post-emergence (autumn), outdoors, winter wheat, with surface-active substances (SAS), 37 tests. Here is the method: as §3
In the next experiment the test system is Erysimum cheiranthoides. The experiment is described as follows: Post-emergence tests/outdoors (Example D, USA). Particulars: 42 g a.i./ha to 45 g a.i./ha, post-emergence (autumn), outdoors, winter wheat, with surface-active substances (SAS), 10 tests. Here is the method:
as §3

Another experiment has as its system Thlaspi arvense. The experiment is described as follows: Post-emergence tests/outdoors (Example D, USA). Particulars: 42 g a.i./ha to 45 g a.i./ha, post-emergence (autumn), outdoors, winter wheat, with surface-active substances (SAS), 7 tests. Here is the method:
as §3

The next experiment concerns Phalaris paradoxa. The experiment is described as follows: Post-emergence test/outdoors (Example E, California). Particulars: 42 g a.i./ha to 45 g a.i./ha, + SAS, outdoors, irrigation wheat growing area, 8 tests.
Experiment [2] concerns Wheat. Put plainly: Post-emergence test/outdoors (Example E, California), crop compatibility. Particulars: 42 g a.i./ha to 45 g a.i./ha, + SAS, outdoors, 7 tests.

The structures appear in SMILES notation. Where a name gives a salt, the structure may show the parent alone.

For `CCCOc1nn(C(=O)NS(=O)(=O)c2ccccc2C(=O)OC)c(=O)n1C` [(I)-Na-salt, 2-(2-methoxycarbonyl-phenylsulphonylaminocarbonyl)-4-methyl-5-propoxy-2,4-dihydro-3H-1,2,4-triazol-3-one], the “degree of damage to the plants (% damage in comparison to the untreated control)” value in the experiment on Agropyron is reported as 90%; in the experiment with Alopecurus (15 g ai./ha) it was 95%; in the experiment on Alopecurus (30 g ai./ha), 95%; in the experiment with Avena (15 g ai./ha), 80%; in the experiment on Avena (30 g ai./ha), 90%; with Lolium, 80%. Also, the “degree of damage to the plants (% damage in comparison to the untreated control)” value in the experiment with Sinapis was 90%; in the experiment on Wheat [1] (15 g ai./ha), 0%; in the experiment with Wheat [1] (30 g ai./ha) it was 0%. In addition, the “compatibility with crop plants (wheat), in words” value in the experiment on Wheat [1] (sodium salt of (I) at 15 g/ha to 60 g/ha) was “very good compatibility”. Moreover, the “herbicidal effect (%)” value is listed as 89% in the experiment with Agropyron repens; 91% in the experiment with Alopecurus myosuroides; 94% with Apera spica-venti; 100% in the experiment on Capsella bursa-pastoris; 67% in the experiment with Poa annua; 100% in the experiment on Sinapis arvensis. Besides, the “herbicidal effect (%)” value is recorded as 95% with Bromus secalinus; 90% in the experiment on Bromus tectorum; 89% in the experiment with Erysimum cheiranthoides; 100% in the experiment on Thlaspi arvense; 99% in the experiment with Phalaris paradoxa. Besides, the “Damage to the crop (wheat)” value in the experiment on Wheat [2] is given as 5%.
